Test results from patent US20070275935A1, “Estratriene Derivatives” (priority 2003, published 2007).
Like-named read-outs stand apart in the source and are kept apart here.

Legend:
[1] = tested on: Human airway smooth muscle (HASM) cells; test: Thrombin-induced proliferation of human airway smooth muscle (HASM) cells, cell number after 48 h; assay type: cell-based; conditions: for IC50: Homo sapiens, read-out: HASM-Thr pIC50 (converted); for HASM- Thr pIC25 / HASM- Thr pIC75: two site model, thrombin-induced proliferation; for HASM- Thr pIC25: first phase (inhibition up to 50%); for HASM- Thr pIC75: second phase (inhibition up to 100%)
Method: Human airway smooth muscle (HASM) cells were cultured from macroscopically normal bronchi (0.5-2 cm diameter) obtained from lung resection or heart-lung transplant specimens provided by the Alfred Hospital (Melbourne) according to methods published in detail previously (Fernandes et al., 1999).
Approximately 0.1 g of smooth muscle was stripped from the wall of the bronchus for each cell culture. Dissected tissue was immersed in Dulbecco's modified Eagle's medium (DMEM) (Flow Laboratories, Scotland), supplemented with 100 U/mL penicillin G (CSL, Australia) and 100 ug/mL streptomycin (CSL, Australia). The tissue was rinsed in phosphate buffered saline (PBS; Oxoid, England) and the airway smooth muscle was chopped into 2 mm^3 pieces and digested for 2 hours in DMEM containing elastase (0.5 mg/mL: Worthington Biochemical, USA) followed by a 12 hour incubation in DMEM containing collagenase (1 mg/mL) (Worthington Biochemical, USA), at 37° C. with agitation.
The resulting cell suspension was centrifuged and washed three times in phosphate buffered saline (PBS). Following the last centrifugation step, the cells were resuspended in 25 mL of DMEM supplemented with L-glutamine (2 mM: Sigma, USA), penicillin G (100 U/mL), streptomycin (100 μg/mL), amphotericin B (2 μg/mL: Wellcome, UK) and heat-inactivated FCS (10% v/v: CSL, Australia) and seeded into 25 cm^2 culture flasks. The primary isolates were incubated for 7 to 14 days to reach confluence.
Cells were harvested weekly by 10 min exposure to trypsin (0.5%: CSL, Australia) and EDTA (1 mM in PBS: BDH, Australia) and passaged at a 1:3 ratio into 75 cm^2 flasks.
The activity of the compounds has been established in cell culture by exploring their effects on mitogen-induced increases in cell number. We investigated the effects of 2MEO and its analogues, 4NO and 4NOM, on the proliferation of HASM cells in response to the proliferative stimulus of either thrombin of basic fibroblast growth factor (bFGF). Cells were seeded onto 6-well plates at a density of 1.5×10^4 cells cm^2, made quiescent by removal of serum-containing media for 24 hours and then stimulated for 48 h with either thrombin (0.3 U/ml) or bFGF (300 pM). The test compounds were pre-incubated with HASM cells for 30 minutes before the addition of thrombin. At the end of the 48 hour incubation period, cells were detached from the culture plate by trypsin (0.5% w/v in PBS containing 1 mM EDTA), incubated for 5 minutes at ambient temperature in PBS containing 0.5% (w/v) trypan blue, washed twice (2% FCS in PBS), isolated by centrifugation (12,000×g, 5 min) and resuspended in 200 μl 2% FCS in PBS for counting in a haemocytometer chamber.
Data are expressed as a percentage of the cell number in vehicle treated wells and are presented as the mean and standard error of the mean.
The potency of the compounds in regulating thrombin-induced proliferation of human airway smooth muscle (HASM) was assessed in cells maintained in culture as described above. The potencies are presented as pIC50 values (Column A of Table 4) denoting the negative log of the concentration that reduces the proliferative response by 50%. […] When the single phase model was determined to be more appropriate, the values of pIC25 and pIC75 were not calculated or shown in the table.

Estrogen Receptor (ER) = biological target: T1, Estrogen Receptor (ER) (Rattus norvegicus, UniProt P06211); test: Estrogen receptor binding assay, 3H-estradiol displacement from rat uterine cytosol; conditions: 3H-estradiol displacement, cytosolic preparations of rat uterus; pIC50 of 4.00 = inactive; read-out: ER-RLB pIC50 (converted)
T1 construct: using rat uterine cytosol as a source of ER; from tissue; host or cells: rat uterus, cytosol fraction (30000 x g supernatant)
T1 sequence (P06211 1-600): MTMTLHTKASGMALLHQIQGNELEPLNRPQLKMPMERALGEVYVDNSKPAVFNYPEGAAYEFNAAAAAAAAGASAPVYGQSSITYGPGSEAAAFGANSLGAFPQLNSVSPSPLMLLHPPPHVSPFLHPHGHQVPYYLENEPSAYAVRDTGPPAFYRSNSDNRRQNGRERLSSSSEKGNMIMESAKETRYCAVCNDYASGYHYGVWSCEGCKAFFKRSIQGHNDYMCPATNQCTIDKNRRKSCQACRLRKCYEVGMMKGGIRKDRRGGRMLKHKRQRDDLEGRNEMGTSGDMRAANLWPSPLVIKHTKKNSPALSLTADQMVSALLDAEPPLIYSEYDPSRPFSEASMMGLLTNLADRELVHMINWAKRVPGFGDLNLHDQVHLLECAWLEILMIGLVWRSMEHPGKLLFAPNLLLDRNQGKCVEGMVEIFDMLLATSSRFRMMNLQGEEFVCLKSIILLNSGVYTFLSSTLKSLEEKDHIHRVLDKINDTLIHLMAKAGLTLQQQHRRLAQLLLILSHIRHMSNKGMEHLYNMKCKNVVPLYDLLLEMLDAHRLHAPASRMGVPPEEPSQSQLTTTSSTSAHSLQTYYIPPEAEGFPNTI
Method: Uteri (6-10 per batch) were isolated from Brown Norway rats (250-350g), washed free from blood in saline and homogenised in 10 mM Tris buffer (pH 7.4, 1.5 mM EDTA, 10% w/v glycerol, 1 mM phenylmethylsulfonylfluoride) using an Ultra Turrax homogeniser for 3 by 15 s bursts with intervals of 1 min on ice.
Nuclear material and cellular debris were removed by centrifugation at 750×g at 4° C. for 10 min (Sorvall RT7); the cytosol component was prepared by centrifugation at 30000×g for 120 min at 4° C. in a Beckman JM1 centrifuge. The cytosol was diluted to approximately 1 mg/ml protein (rat uterine extract) determined using the Bradford method (Biorad).
Separation of bound from free radioligand was achieved by the addition of 500 μL of dextran-coated charcoal (400 mg dextran clinical grade C and 2g of charcoal, Norit A in 100 mL of Tris buffer) and centrifugation at 4° C. in a Sorval RT7 at 2000×g for 10 min.

[2] = tested on: human breast tumour cell line, MCF7; test: Proliferation of MCF7 cells in response to 5% FCS or EGF; assay type: cell-based; conditions: Homo sapiens, MCF7; proliferation in response to 5% FCS; pIC50 of 4.00 = inactive
Method: (§1) The effects of 4NO were evaluated in a number of non-smooth muscle cell types including the type II airway epithelial cell line, A549 (ATCC accession number ATCC CCL-185 Lung carcinoma human) (FIG. 2); the human breast tumour cell line, MCF7, (ATTC accession number ATCC HTB-22 breast adenocarcinoma, human) which expresses the estrogen receptor (FIG. 3); and in bovine aortic endothelial cells (BAEC) (FIG. 4).
(§2) The effects of test compounds were examined on proliferation of A549 cells in response to 5% fetal calf serum (FCS). Analogues were pre-incubated with A549 cells for 30 min before the addition of FCS. The incubation continued for 48 h before cell enumeration. Data are expressed as a percentage of the cell number in vehicle treated wells and are presented as the mean and standard error of the mean. Similarly the effects of 2MEO and 4NO on proliferation of MCF7 in response to 5% FCS or epidermal growth factor (EGF, 300 pM) were examined, as were the effects of 2MEO and 4NO on proliferation of BAEC in response to 5% FCS. The incubation parameters were the same as described above and results are presented as the mean and standard error of the mean.
(§3) This assay was also used to evaluate the ability of other compounds to inhibit the proliferation of non-smooth muscle cells MCF7 and A549 (described above) in response to 5% FCS. The results of this assay are presented in Table 4 (columns G and H respectively). The potency of the compounds was considerably less in inhibiting proliferation of these cell lines than it was for HASM. These observations support the contention that there are cell type-specific targets for the actions of these compounds. Such assays may also be adopted to examine the effect of other disclosed compounds on these cells or on other non-smooth muscle cells of interest.

Pulmonary fibroblasts = test: bFGF-induced proliferation of human pulmonary fibroblasts; assay type: cell-based; conditions: inhibition of bFGF (300 pM)-induced proliferation, mean and SEM, minimum 3 experiments; 1 μM; * not defined
Method: Samples of parenchyma from human lung transplant recipients were dissected away from the pleura, chopped into fragments of less than 1 mm^2 and allowed to adhere to plastic culture dishes in a minimal volume of DMEM containing serum (10%) and antibiotics (as used for HASM culture). After the tissue fragments had adhered to the base of the dish additional medium was added. Medium was changed twice weekly until an explant culture formed, at which time the tissue fragments were removed and the cells were passaged in a 1:3 split ratio by exposure to trypsin weekly to produce pulmonary fibroblast cultures.
Pulmonary fibroblasts were cultured in DMEM, serum-deprived for 24 h, in the presence or absence of the test compounds, and then stimulated with 300 pM bFGF for 48 h before harvest and counting of viable cells. An increase pulmonary fibroblast cell number was prevented by 4NOM over the concentration range of 1 to 1000 nM.
A range of the disclosed compounds was subsequently examined using the above assay system, and the results are summarized in Column E of Table 4. […] The proliferation of parenchymal fibroblasts is important in the development of pulmonary fibrosis.

[3] = tested on: type II airway epithelial cell line, A549; test: Proliferation of A549 cells in response to 5% FCS; assay type: cell-based, human; conditions: Homo sapiens
Method: as §1, §2, §3

[4] = tested on: GM-CSF production by Human Airway Smooth Muscle Cells; test: Interleukin-1α-mediated GM-CSF production by HASM cells (ELISA); assay type: cell-based; conditions: inhibition of interleukin-1α (1 ng/ml)-mediated GM-CSF production; concentration not given; * not defined
[5] = negative log of the concentration that reduces the thrombin-induced proliferative response by 50%, pIC50 of 4.00 = inactive
[6] = A549, proliferation in response to 5% FCS, pIC50 of 4.00 = inactive, read-out: A549 PIC50 (converted)

Row | Compound | IC50 [1, 5] [µM] | HASM- Thr pIC25 [1] | HASM- Thr pIC75 [1] | IC50 (Estrogen Receptor (ER)) [µM] | IC50 [2] [µM] | IC50 [1] [µM] | pFib - bFGF (Pulmonary fibroblasts) | IC50 ([3]; A549, read-out: A549 PIC50) [µM] | HASM - GM-CSF [4] | IC50 [3, 6] [µM]
1 | C[C@]12CC[C@@H]3c4ccc(O)cc4CC[C@H]3[C@@H]1CC/C2=N\OCc1ccc([N+](=O)[O-])cc1 [CP-DM-3-101, estrone-17-(4-nitrobenzyl)oxime] | 1.91 | 6.27 | 5.06 | 2.4 | 12.6 | – | – | – | – | –
2 | COc1cc2c(cc1O)CC[C@@H]1[C@@H]2CC[C@]2(C)/C(=N/OCc3cccc([N+](=O)[O-])c3)CC[C@@H]12 [CP-DM-3-104, 2-methoxyestrone-17-(3-nitrobenzyl)oxime] | 0.55 | 7.16 | 5.02 | – | 8.51 | – | – | – | – | –
3 | COc1cc2c(cc1O)/C(=N/Nc1ccc([N+](=O)[O-])cc1[N+](=O)[O-])C[C@@H]1[C@@H]2CC[C@]2(C)/C(=N/O)CC[C@@H]12 [CP-DM-3-119, 2-methoxy-6-(2,4-dinitrophenylhydrazono)estrone-17-oxime] | – | – | – | – | – | 3.31 | 17 ± 14 | 15.8 | – | –
4 | COc1ccc(CO/N=C2\C[C@@H]3[C@H](CC[C@]4(C)/C(=N/O)CC[C@@H]34)c3cc(OC)c(O)cc32)cc1 [CP-DM-4-6, 2-methoxy-6-(4-methoxybenzyloxy)-iminoestrone-17-oxime] | 0.117 | 9.57 | 4.94 | 45.7 | 2.29 | – | – | – | 28 ± 10* | 7.76
5 | COc1cc2c(cc1O)/C(=N/OCc1ccncc1)C[C@@H]1[C@@H]2CC[C@]2(C)/C(=N/O)CC[C@@H]12 [CP-DM-4-15, 2-methoxy-6-(4-pyridylmethyloxy)iminoestrone-17-oxime] | 3.39 | – | – | 12.6 | 10 | – | – | – | 34 ± 11* | –
6 | COc1ccc(CO/N=C2\CC[C@H]3[C@@H]4CCc5cc(O)ccc5[C@H]4CC[C@]23C)cc1 [CP-DM-4-33, estrone-17-(4-methoxybenzyl)oxime] | 1.35 | 7.12 | 5.03 | 0.11 | 3.16 | – | – | – | – | 9.12
7 | COc1ccc(CON=C2CCC3C4CCc5cc(O)c(OC)cc5C4CCC23C)cc1 (centres unmarked) [CP-DM-4-34, 2-methoxyestrone-17-(4-methoxybenzyl)oxime] | – | 4.00 | 4.00 | 40.7 | 4.07 | – | – | – | 29 ± 12 | 2.14
8 | CO/N=C1\CC[C@H]2[C@@H]3C/C(=N\OCc4cc(F)cc(F)c4)c4cc(O)c(OC)cc4[C@H]3CC[C@]12C [CP-DM-4-74, 6-(3,5difluorobenzyloxy)imino-2-methoxyestrone-17-methyloxime] | 1.15 | 6.59 | 5.34 | – | 10 | – | 5 ± 9 | – | 11 ± 8 | –
